Experimental data published in article PMC7647782, “Cytotoxic, Antioxidant, and Metabolic Enzyme Inhibitory Activities of Euphorbia cyparissias Extracts” (Oxidative Medicine and Cellular Longevity, 2020).
In brackets after ≈: the same amount, converted by molar mass. One block for each molecule: values may come before it.

What was measured:
[1] = biological target: β-glucosidase; experiment: β-Glucosidase activity inhibition; assay type: biochemical
Description: [20], respectively. […] The enzymes β-glucosidase, α-amylase, and XO were purchased from Sigma-Aldrich (St. Louis, MO, USA). The β-glucosidase activity was determined by measuring the 4-nitrophenol […] (4-NPGP) product. […] Then, the mixture was incubated with color reagent NPGP (180 μL) for more 15 min at 37°C. […] The activity was evaluated by measuring absorbance at 405 nm with a microplate reader. The same equation used to measure α-amylase activity was used to measure that of β-glucosidase.

[2] = DPPH radical scavenging assay
Description: In every sample of E. cyparissias extract, the antioxidant activity was evaluated by using the DPPH radical scavenging and reducing power assays as previously described in the literature. To measure DPPH activity, a sample of 0.5 mL for each concentration was mixed with an equal volume of DPPH ethanolic solution and incubated in darkness for 1 h at ambient temperature. The activity was determined by comparing the absorbance at 519 nm of DPPH radicals to that of the control (containing all reagents except the extract).

[3] = biological target: SPLA2-IB; experiment: Phospholipase activity inhibition, stingray PLA2-IB; assay type: biochemical; conditions: stingray group IB phospholipase
Description: The phospholipase activities were measured based on the De Araújo and Radvanyi method [24]. The inhibitory effect of various extracts was determined using samples of dromedary, stingray, and porcine digestive group IB phospholipases (PLA2-IB). A 10 μL sample of ethanolic or aqueous extract was mixed with 10 μL of PLA2-GIB and preincubated for 20 min at room temperature. The mixture was added to 1 mL of the substrate, which was composed of lecithin (3.5 mM) solubilized in 100 mM NaCl, 3 mM sodium taurodeoxycholate, 10 mM CaCl2, and 0.055 mM red phenol at a pH of 7.6. […] The inhibition percentage was calculated by measuring residual activity compared to negative control assay (absence of extract). The IC50 values were determined from the curve.
Values represent the mean ± SD of triplicate measurements.

[4] = biological target: dromedary lipase (DrPL); experiment: Lipase activity inhibition, dromedary lipase; assay type: biochemical; conditions: mean ± SD of triplicate
Source text: Dromedary (DrPlA2-IB), porcine (PPPlA2-IB), and stingray group IB phospholipases (SPLA2-IB) were purified and prepared as described in our previous works and De Haas et al., respectively. Dromedary (DrPL), stingray (SPL), and porcine (PPL) lipases were also purified according to protocols optimized in previous works. The enzymes β-glucosidase, α-amylase, and XO were purchased from Sigma-Aldrich (St. Louis, MO, USA).
The inhibitory effect of ethanolic and aqueous extracts of E. cyparissias on dromedary, stingray, and porcine lipase activities were investigated at different concentrations ranging from 0 to 100 μg/mL. The assay was carried out by incubating 12 IU of enzymes (50 μL) with 10 μL of extract. A positive control using commercial orlistat (Xenical, Hoffmann-La Roche) was run in parallel in the same conditions. Inhibition of lipase activities was expressed as the percentage of residual activity after incubation with Euphorbia extracts compared to the negative control ([…]). Lipase activities were measured using tributyrin as a substrate under the optimal conditions for each enzyme, as previously described. The IC50 values correspond to the half maximal inhibitory concentration.
The activities of these lipases were measured using the pH-stat technique on olive oil emulsion at optimal conditions for enzyme activity. […]

[5] = biological target: chymotrypsin (Bos taurus, UniProt P00766); experiment: Protease activity inhibition, chymotrypsin; assay type: biochemical; conditions: unit as in head of Table 4
Description: (§1) The trypsin and chymotrypsin activity inhibition was performed as described by Kunitz. An aliquot of 1 mL of ethanolic or water extract was incubated for 15 min at 37°C with an equal volume of the enzyme. The mixture was then incubated for 30 min at 37°C with 2 mL of 2% casein as the substrate. The reaction was stopped by adding 2.5 mL of 5% trichloroacetic acid (TCA). The activity was determined by measuring the absorbance of the mixture at 280 nm, after 15 min of centrifugation at 15 000 rpm. Ethanol was used as a negative control and Bowman-Birk Inhibitor (BBI) as a positive control. The protease activity inhibition was also expressed as inhibition percentage, which was determined by comparing the results with those of a control experiment.

[6] = biological target: T1, trypsin (Bos taurus, UniProt P00760); experiment: Protease activity inhibition, trypsin; assay type: biochemical; conditions: unit as in head of Table 4
T1 construct: gene PRSS1
T1 sequence (P00760 24-246): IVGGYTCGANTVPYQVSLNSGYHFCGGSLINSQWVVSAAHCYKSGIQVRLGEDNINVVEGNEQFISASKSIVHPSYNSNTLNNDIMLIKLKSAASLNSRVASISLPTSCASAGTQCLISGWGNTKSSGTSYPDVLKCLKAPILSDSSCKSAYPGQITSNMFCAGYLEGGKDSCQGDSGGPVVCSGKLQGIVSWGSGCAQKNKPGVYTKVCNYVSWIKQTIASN
Description: as §1

IC50 β-Glucosidase [1]: 26.2 ± 2.5 µg/mL (≈ 40.6 µM)
Molecule: C[C@H]1O[C@H](O[C@H]2[C@H](O)[C@@H](O)[C@@H](O[C@H]3[C@H](O)[C@@H](O)C(O)O[C@@H]3CO)O[C@@H]2CO)[C@H](O)[C@@H](O)[C@@H]1N[C@H]1C=C(CO)[C@@H](O)[C@H](O)[C@H]1O (stereo partly shown) [Acarbose]

DPPH IC50 ([2]; from Figure 5(b), unit as printed for BHT): ~54 µg/mL
Molecule: Cc1cc(C(C)(C)C)c(O)c(C(C)(C)C)c1 [BHT, butylated hydroxytoluene]
DPPH scavenging activity ([2]; at a concentration of 1 mg/mL): 95.3 ± 0.4%

IC50 Trypsin [6]: 0.0115 ± 0.0004 µg/mL
B1: BBI: Bowman-Birk Inhibitor, positive control for trypsin and chymotrypsin inhibition (protein)
chain: DDESSKPCCDQCACTKSNPPQCRCSDMRLNSCHSACKSCICALSYPAQCFCVDITDFCYEPCKPSEDDKEN
modifications: seven intrachain disulfides; Check residues are the known reactive sites Lys16 and Leu43 in mat

The next lines start with the molecule.

Molecule: CC1(C)CC[C@]2(C(=O)O)CC[C@]3(C)C(=CC[C@@H]4[C@@]5(C)CC[C@H](O)C(C)(C)[C@@H]5CC[C@]43C)[C@@H]2C1 [Oleanolic acid, oleanolic acid]
IC50 SPLA2-IB [3]: 82.8 ± 5.7 µg/mL (≈ 181 µM)

Molecule: CCCCCCCCCCC[C@@H](C[C@@H]1OC(=O)[C@H]1CCCCCC)OC(=O)[C@H](CC(C)C)NC=O [Orlistat, orlistat]
IC50 DrPL [4]: 97.2 ± 2.5 µg/mL (≈ 196 µM)

Molecule: BBI: Bowman-Birk Inhibitor, positive control for trypsin and chymotrypsin inhibition
IC50 Chymotrypsin [5]: 0.0108 ± 0.0004 µg/mL
